The source of these data is BindingDB's records for doi:10.1016/0960-894X(95)00250-W (1995).

As usually defined, the IC50 is the concentration needed to halve the response being measured.

The experiment concerns the target Receptor-type tyrosine-protein phosphatase C (Homo sapiens) (UniProt P08575). Kind of experiment: In vitro inhibitory activity against recombinant CD45 protein tyrosine phosphatase.

Chain of Receptor-type tyrosine-protein phosphatase C (Homo sapiens) (P08575 whole entry, looked up): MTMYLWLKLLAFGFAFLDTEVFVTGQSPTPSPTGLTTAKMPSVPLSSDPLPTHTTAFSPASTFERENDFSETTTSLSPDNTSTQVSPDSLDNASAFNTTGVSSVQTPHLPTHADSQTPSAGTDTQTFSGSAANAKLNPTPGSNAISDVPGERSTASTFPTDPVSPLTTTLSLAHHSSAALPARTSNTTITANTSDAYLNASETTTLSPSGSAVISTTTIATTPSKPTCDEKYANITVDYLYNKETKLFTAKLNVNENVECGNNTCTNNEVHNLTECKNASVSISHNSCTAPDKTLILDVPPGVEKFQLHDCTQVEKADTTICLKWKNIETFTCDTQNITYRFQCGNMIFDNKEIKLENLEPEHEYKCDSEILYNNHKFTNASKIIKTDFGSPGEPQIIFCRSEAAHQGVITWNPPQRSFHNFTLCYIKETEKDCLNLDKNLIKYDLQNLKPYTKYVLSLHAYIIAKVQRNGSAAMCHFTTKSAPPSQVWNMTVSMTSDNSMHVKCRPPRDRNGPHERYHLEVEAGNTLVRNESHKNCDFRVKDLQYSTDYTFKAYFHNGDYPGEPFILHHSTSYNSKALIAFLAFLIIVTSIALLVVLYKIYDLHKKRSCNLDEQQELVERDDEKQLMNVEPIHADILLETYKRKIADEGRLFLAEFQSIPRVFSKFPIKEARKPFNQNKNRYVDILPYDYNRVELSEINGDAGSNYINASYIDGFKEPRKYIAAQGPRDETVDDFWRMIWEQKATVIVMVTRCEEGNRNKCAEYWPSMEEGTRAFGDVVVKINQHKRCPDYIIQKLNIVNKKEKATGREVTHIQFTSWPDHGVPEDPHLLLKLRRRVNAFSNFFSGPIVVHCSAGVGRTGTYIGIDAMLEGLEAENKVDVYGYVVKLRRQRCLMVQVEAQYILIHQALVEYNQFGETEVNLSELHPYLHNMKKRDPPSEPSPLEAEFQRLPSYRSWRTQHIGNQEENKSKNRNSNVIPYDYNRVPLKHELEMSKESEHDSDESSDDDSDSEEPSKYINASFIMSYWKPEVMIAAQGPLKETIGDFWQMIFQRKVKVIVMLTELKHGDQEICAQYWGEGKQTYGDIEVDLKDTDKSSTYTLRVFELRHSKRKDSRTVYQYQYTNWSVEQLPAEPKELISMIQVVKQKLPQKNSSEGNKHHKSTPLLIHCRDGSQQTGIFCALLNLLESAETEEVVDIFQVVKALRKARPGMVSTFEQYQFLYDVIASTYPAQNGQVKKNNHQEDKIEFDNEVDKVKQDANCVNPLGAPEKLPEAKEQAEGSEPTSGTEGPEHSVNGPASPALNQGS

For the compound `COc1cc2c(cc1OC)-c1c(OC)c(OC)cc3c1[C@H](C2)N(C)CC3`, the IC50 was 88 µM.

On to `CN1CCc2cc3c(c4c2C1Cc1ccccc1-4)OCO3` (stereo not given) [7-Methyl-6,7,7a,8-tetrahydro-5H-benzo[g][1,3]dioxolo[4',5':4,5]benzo[1,2,3-de]quinoline], for which the 50% inhibitory concentration (IC50) came to 107 µM.

On to `c1ccc2c(c1)C[C@H]1NCCc3cc4c(c-2c31)OCO4` [(-)-anonaine], for which the half-inhibitory concentration (IC50) was determined as 17 µM.

Regarding `COc1cc2c3c(c1OC)-c1ccccc1C[C@@H]3NCC2` [(S)-1,2-Dimethoxy-5,6,6a,7-tetrahydro-4H-dibenzo[de,g]quinoline], the half-inhibitory concentration (IC50) is 5.3 µM.

With `O=C1c2ccccc2-c2c3c(cc4ccnc1c24)OCO3` [Liriodenine], the IC50 was 182 µM.
